IC50 data for 19 compounds are collected here from patent US9718816B2, “1-phenoxy-3-(alkylamino)-propan-2-ol derivatives as CARM1 inhibitors and uses thereof” (Epizyme, Inc., priority 2013, dated 2017).

Structures are written as SMILES. pIC50: −log10 of the molar value.

The target of one assay is T1, CARM1 (Homo sapiens, UniProt Q86X55).
T1 construct: Flag-CARM1-His; made in house; host or cells: HEK 293F cells infected with recombinant baculovirus (pFastBacMam)
T1 sequence (Q86X55 1-585 isoform Q86X55-1): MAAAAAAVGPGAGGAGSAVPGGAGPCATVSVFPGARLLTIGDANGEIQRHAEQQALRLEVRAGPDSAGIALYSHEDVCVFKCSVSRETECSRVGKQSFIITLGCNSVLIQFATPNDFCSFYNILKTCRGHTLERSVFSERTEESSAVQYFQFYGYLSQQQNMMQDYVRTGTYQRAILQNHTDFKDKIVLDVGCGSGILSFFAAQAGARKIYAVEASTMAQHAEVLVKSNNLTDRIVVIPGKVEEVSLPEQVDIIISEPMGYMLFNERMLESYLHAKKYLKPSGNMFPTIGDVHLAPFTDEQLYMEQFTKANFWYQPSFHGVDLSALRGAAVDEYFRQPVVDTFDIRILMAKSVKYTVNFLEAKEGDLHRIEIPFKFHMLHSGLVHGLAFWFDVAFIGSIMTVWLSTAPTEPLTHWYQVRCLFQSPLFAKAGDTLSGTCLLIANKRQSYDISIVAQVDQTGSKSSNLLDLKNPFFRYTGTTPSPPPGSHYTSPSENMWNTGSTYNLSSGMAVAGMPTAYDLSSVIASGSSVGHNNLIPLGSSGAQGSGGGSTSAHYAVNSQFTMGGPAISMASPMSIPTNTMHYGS
Briefly: CARM1 enzyme assay on peptide substrate (3H-SAM Flashplate). The conditions noted are these: CARM1 0.25 nM, 3H-SAM 30 nM, peptide 250 nM, 30 min preincubation; read-out: Biochem IC50. It is filed as biochemical. The source says:
S-adenosylmethionine (SAM), S-adenosylhomocysteine (SAH), bicine, Tween20, dimethylsulfoxide (DMSO), bovine skin gelatin (BSG), sodium butyrate and Tris(2-carboxyethyl)phosphine hydrochloride solution (TCEP) were purchased from Sigma-Aldrich at the highest level of purity possible. ^3H-SAM was purchase from American Radiolabeled Chemicals with a specific activity of 80 Ci/mmol. 384-well streptavidin Flashplates were purchased from PerkinElmer.
Peptide representative of human histone H3 residues 16-30 was synthesized with an N-terminal linker-affinity tag motif and a C-terminal amide cap by 21^St Century Biochemicals. The peptide was purified by high-performance liquid chromatography (HPLC) to greater than 95% purity and confirmed by liquid chromatography mass spectrometry (LC-MS). The sequence was Biot-Ahx-[…]-amide and contained a monomethylated arginine at position 26 (SEQ ID NO.:1).
Human CARM1 (PRMT4) (NM_199141.1) transcript clone was amplified from an HEK 293 cDNA library, incorporating a flanking 5′ sequence encoding a FLAG tag ([…]) (SEQ ID NO.:2) fused directly to Ala 2 of CARM1 and 3′ sequence encoding a hexa His sequence ([…]) (SEQ ID NO.:3) fused directly to Ser 608. The gene sequence encoding isoform1 containing a deletion of amino acids 539-561 was amplified subsequently and subcloned into pFastBacMam (Viva Biotech). Protein Expression
Recombinant baculovirus were generated according to Bac-to-Bac kit instructions (Life Technologies). Protein over-expression was accomplished by infecting exponentially growing HEK 293F cell culture at 1.3×10^6 cell/ml with virus (MOI=10) in the presence of 8 mM sodium butyrate. Infections were carried out at 37° C. for 48 hours, harvested by centrifugation, and stored at −80° C. for purification.
Column was washed with 500 mM NaCl in buffer A and Flag-CARM1-His was eluted with 200 ug/ml FLAG peptide in buffer A. Pooled fractions were dialyzed in 20 mM Tris, 150 mM NaCl, 5% glycerol and 1 mM DTT, pH 7.8. The purity of recovered protein was 94.
General Procedure for CARM1 Enzyme Assays on Peptide Substrates
The assays were all performed in a buffer consisting of 20 mM Bicine (pH=7.6), 1 mM TCEP, 0.005% BSG, and 0.002% Tween 20, prepared on the day of use. Compounds in 100% DMSO (1 ul) were spotted into a polypropylene 384-well V-bottom plates (Greiner) using a Platemate Plus outfitted with a 384-channel head (Thermo Scientific). DMSO (1 ul) was added to Columns 11, 12, 23, 24, rows A-H for the maximum signal control and 1 ul of SAH, a known product and inhibitor of CARM1, was added to columns 11, 12, 23, 24, rows I-P for the minimum signal control. A cocktail (40 ul) containing the CARM1 enzyme was added by Multidrop Combi (Thermo-Fisher). The compounds were allowed to incubate with CARM1 for 30 min at room temperature, then a cocktail (10 ul) containing ^3H-SAM and peptide was added to initiate the reaction (final volume=51 ul). The final concentrations of the components were as follows: CARM1 was 0.25 nM, ^3H-SAM was 30 nM, peptide was 250 nM, SAH in the minimum signal control wells was 1 mM, and the DMSO concentration was 2%. The assays were stopped by the addition of non-radiolabeled SAM (10 ul) to a final concentration of 300 uM, which dilutes the ^3H-SAM to a level where its incorporation into the peptide substrate is no longer detectable. 50 ul of the reaction in the 384-well polypropylene plate was then transferred to a 384-well Flashplate and the biotinylated peptides were allowed to bind to the streptavidin surface for at least 1 hour before being washed once with 0.1% Tween20 in a Biotek ELx405 plate washer. The plates were then read in a PerkinElmer TopCount plate reader to measure the quantity of ^3H-labeled peptide bound to the Flashplate surface, measured as disintegrations per minute (dpm) or alternatively, referred to as counts per minute (cpm). […]

In assay [1] the test system is asymmetric di-methyl PABP1 in RKO cells. Nature of the assay: RKO methylation assay (In Cell Western, asymmetric di-methyl PABP1). Format: cell-based. The conditions noted are these: Homo sapiens, 48 hours incubation, read-out: Cellular IC50. The source says: RKO adherent cells were purchased from ATCC (American Type Culture Collection), Manassas, Va., USA. DMEM/Glutamax medium, penicillin-streptomycin, heat inactivated fetal bovine serum, 0.05% trypsin and D-PBS were purchased from Life Technologies, Grand Island, N.Y., USA. Odyssey blocking buffer, 800CW goat anti-rabbit IgG (H+L) antibody, and Licor Odyssey infrared scanner were purchased from Licor Biosciences, Lincoln, Nebr., USA. Asymmetric di-methyl PABP1 antibody was purchased from Cell Signaling Technology, Danvers, Mass., USA. Methanol was purchased from VWR, Franklin, Mass., USA. 10% Tween 20 was purchased from KPL, Inc., Gaithersburg, Md., USA. Paraformaldehyde (PFA) was purchased from EM Sciences. DRAQ5 was purchased from Biostatus Limited, Leicestershire, UK. […]
Calculations. First, the ratio for each well was determined by:
Each plate included fourteen control wells of DMSO only treatment (minimum inhibition) as well as fourteen control wells for maximum inhibition treated with 20 μM of a reference compound. The average of the ratio values for each control type was calculated and used to determine the percent […] for each test well in the plate. […]
Percent inhibition was determined and IC50 curves were generated using triplicate wells per concentration of compound.

In the case of `CNCC(O)COc1cccc(-c2cc(N(C)c3ccccn3)c3cnn(C(C)C)c3n2)c1` (stereo not shown) [Example 33-1], the pIC50 on CARM1 is 6.00 to 7.00.

Turning to `CNCC(O)COc1cccc(-c2cc(NCCCCNC(=O)c3ccn(C)n3)c3cnn(C(C)C)c3n2)c1` (stereo not shown) [Example 62-1], the pIC50 at CARM1 was 6.00 to 7.00.

As for `CNCC(O)COc1cccc(-c2cc(NCCCNC(=O)c3cccnc3)c3cnn(C(C)C)c3n2)c1` (stereo not shown) [Example 59-1], the pIC50 on CARM1 is 6.00 to 7.00.

For the compound `CNCC(O)COc1cc(OC)cc(-c2cc(N3CCOCC3)n3ncc(C4CC4)c3n2)c1` (stereo not shown) [Example 18-6], in assay [1], the negative logarithm of the IC50 (pIC50) was 5.00 to 5.30.

In the case of `CNC(=O)Nc1cc(-c2cccc(OCC(O)CN)c2)nc2c1cnn2C(C)C` (stereo not shown) [Example 8-1], the pIC50 on CARM1 is 6.00 to 7.00.

Consider `CC(C)n1ncc2c(N[C@H]3CO[C@@H]4OCC[C@@H]43)cc(-c3cccc(OCC(O)CN)c3)nc21` (stereo partly shown) [Example 38-1], for which, on CARM1, the pIC50 was greater than 7.00.

Regarding `CC(C)n1ncc2c(NS(=O)(=O)N(C)C)cc(-c3cccc(OCC(O)CN)c3)nc21` (stereo not shown) [Example 36-1], the pIC50 at CARM1 is greater than 7.00.

Turning to `CC(C)n1ncc2c(NC(=O)NC3CCOCC3)cc(-c3cccc(OCC(O)CN)c3)nc21` (stereo not shown) [Example 49-1], the pIC50 at CARM1 was 6.00 to 7.00.

For `CNCC(O)COc1cccc(-c2cc(NCc3cnc4ccccn34)c3cnn(C(C)C)c3n2)c1` (stereo not shown) [Example 53-1], at CARM1, the pIC50 was greater than 7.00.

On to `CNCC(O)COc1cccc(-c2cc(NCCCCN)c3cnn(C(C)C)c3n2)c1` (stereo not shown) [Example 22-1], for which the pIC50 on CARM1 was greater than 7.00.

With `CC(C)n1ncc2c(N3CCOCC3)cc(-c3cccc(OC[C@@H](O)CN)c3)nc21` [Example 12-1], the negative logarithm of the IC50 (pIC50) on CARM1 is 6.00 to 7.00.

In the case of `CNCC(O)COc1cccc(-c2cc(NC(=O)OC)c3cnn(C(C)C)c3n2)c1` (stereo not shown) [Example 16-1], the pIC50 on CARM1 was 6.00 to 7.00.

Consider `CNCC(O)COc1cccc(-c2cc(NCCCCNC(=O)c3cccnc3)c3cnn(C(C)C)c3n2)c1` (stereo not shown) [Example 61-1], for which the pIC50 on CARM1 is 6.00 to 7.00.

As to `CNCC(O)COc1cccc(-c2cc(NCCCCCNC(=O)c3ccn(C)n3)c3cnn(C(C)C)c3n2)c1` (stereo not shown) [Example 64-1], the pIC50 on CARM1 is greater than 7.00.

On to `CNCC(O)COc1cccc(-c2cc(NC(=O)NC)c3cnn(C(C)C)c3n2)c1` (stereo not shown) [Example 13-1], for which the pIC50 at CARM1 was greater than 7.00.

In the case of `CC(C)n1ncc2c(N3CCOCC3)cc(-c3cccc(OCC(O)CN)c3)nc21` (stereo not shown) [Example 3-1], the pIC50 on CARM1 was greater than 7.00.

For the compound `CCNCC(O)COc1cccc(-c2cc(N3CCOCC3)c3cnn(C(C)C)c3n2)c1` (stereo not shown) [Example 31-1], at CARM1, the negative-log IC50 (pIC50) was greater than 7.00.

Regarding `CC(C)n1ncc2c(NCC3CCOCC3)cc(-c3cccc(OCC(O)CN)c3)nc21` (stereo not shown) [Example 30-1], the negative-log IC50 (pIC50) at CARM1 was greater than 7.00.

As to `CC(C)n1ncc2c(NC(=O)N(C)C)cc(-c3cccc(OCC(O)CN)c3)nc21` (stereo not shown) [Example 14-1], the pIC50 at CARM1 was 6.00 to 7.00.

As usually defined, the pIC50 is −log10 of the IC50, conventionally taken in molar units.
